Experimental findings from patent US12448373B2, “Azetidinyl-acetamides as CXCR7 inhibitors” (CHEMOCENTRYX, INC., priority 2021, dated 2025) are described below.

Each structure is given as a SMILES string.

For the test, the target named is T1, CXCR7 (Homo sapiens, UniProt P25106).
T1 construct: expressed in transfected cells; host or cells: CHO cells (CHO-CXCR7), transgenes maintained with Hygromycin B and G418
T1 sequence (P25106 whole entry): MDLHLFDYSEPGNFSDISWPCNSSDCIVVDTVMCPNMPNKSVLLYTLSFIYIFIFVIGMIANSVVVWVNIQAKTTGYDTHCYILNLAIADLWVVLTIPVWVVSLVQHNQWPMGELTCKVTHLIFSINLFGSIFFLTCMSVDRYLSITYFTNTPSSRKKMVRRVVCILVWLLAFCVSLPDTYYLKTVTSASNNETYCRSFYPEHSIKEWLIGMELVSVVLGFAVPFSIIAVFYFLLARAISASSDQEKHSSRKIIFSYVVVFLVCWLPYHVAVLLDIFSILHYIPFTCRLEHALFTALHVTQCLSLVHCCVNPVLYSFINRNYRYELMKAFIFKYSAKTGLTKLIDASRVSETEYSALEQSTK
The test can be described thus: CXCR7 β-arrestin recruitment assay in CHO-CXCR7 cells (ProLink/EA β-galactosidase complementation), induced by human SDF-1a. The test is classed as cell-based. The note with it: assay buffer, SDF-1a at EC50 concentration. The protocol: CXCR7 is fused in frame with a small enzyme donor fragment ProLink and co-expressed in CHO cells stably expressing a fusion protein of β-arrestin and the larger, N-terminal deletion mutant of β-galactosidase (called enzyme acceptor or EA). Activation of the CXCR7 stimulates binding of β-arrestin to the ProLink-tagged CXCR7 and forces complementation of the two enzyme fragments, resulting in the formation of an active β-galactosidase enzyme. The β-galactosidase enzyme activity is measured with a substrate that generates fluorescence.
CHO-CXCR7 cells (0.22×10^6/mL) were cultured in growth medium (Ham's F-12 medium with 10% fetal bovine serum (FBS)), Hygromycin B (200 ug/mL) and G418 (250 ug/mL) were used to maintain the transgenes. The day before the assay, the cells were detached from culture dishes with 0.25% trypsin-EDTA (Corning, Catalog No. 25-053-CI), plated into 96 well plate (2.2×10^5 cells/mL, 100 μL/well) and incubated overnight at 37° C. with 5% CO2. On the day of the assay, cell culture medium was removed and 100 uL of assay buffer (PBS or FBS) was added to each well. 1 μL of compound that were serially diluted in DMSO was added to each well. 5 μL of human SDF-la (Pepro Tech, Catalog No. 300-28A, at EC50 concentration pre-determined on the same day) was then added and mixed to induce CXCR7-mediated β-arrestin recruitment. The plates were incubated for 1.5 hours at 37° C. The assay buffer was removed, 100 μL substrate solution was added and the reaction was carried out at 37° C. for 30 minutes. The substrate solution was prepared by mixing 100 mL Phosphate Buffer (1M, Sigma, Catalog No. P3619-1GA), 100 mL 10% Triton X 100 (Sigma, Catalog No. T8787.), 5 mL MgCl2 (1M, Sigma, Catalog No. M1028), 1.5 mL, β-mercaptoethanol (Gibco, Catalog No. 21985-023.). 3-carboxyumbelliferyl β-D-galactopyranoside (ThermoFisher Scientific, Catalo No. F2905) was added at 0.4 mM right before use. The reaction was then stopped by adding 50 μL of Stop Solution (2.1% w/v Na2CO3) to each well. Fluorescence intensity was measured with a FlexStation 3 microplate reader (Molecular Devices) with the following setting—excitation: 360 nm, emission: 465 nm, manual Gain: 55. IC50 values were calculated with GraphPad Prism using 3 parameter nonlinear regression.
(Activated receptors often draw arrestin, which recruitment assays turn into a signal.)
In turn, `Cc1cc(C)nc(C(C)(C)NC(=O)CC2(NC(=O)c3cc(-c4ccc(F)cc4F)on3)CN(CC3(C)CCC3)C2)n1` [Example 1.001] displayed an IC50 of less than 5 nM. With `CC1(CN2CC(CC(=O)NC(C)(C)c3ccccn3)(NC(=O)c3cc(-c4ccc(F)cc4F)on3)C2)CCC1` [Example 1.002] the figure was less than 5 nM; with `Cc1cc(Cl)cc(C(C)(C)NC(=O)CC2(NC(=O)c3cc(-c4ccc(F)cc4F)on3)CN([C@H]3CC[C@](C)(O)CC3)C2)n1` [Example 1.003], less than 5 nM. The compound `Cc1ccc(F)c(C(C)(C)NC(=O)CC2(NC(=O)c3nnc(-c4ccc(F)cc4F)s3)CN([C@H]3CC[C@](C)(O)CC3)C2)n1` [Example 1.005] had an IC50 of less than 5 nM. With `Cc1cc(Cl)cc(C(C)(C)NC(=O)CC2(NC(=O)c3nnc(-c4ccc(F)cc4F)s3)CN([C@H]3CC[C@](C)(O)CC3)C2)n1` [Example 1.006] the figure was less than 5 nM; with `CC(C)(NC(=O)CC1(NC(=O)c2nnc(-c3ccc(F)cc3F)s2)CN([C@H]2CC[C@](C)(O)CC2)C1)c1cc(Cl)cc(Cl)c1` [Example 1.007], less than 5 nM; with `Cc1ccc(F)c(C(C)(C)NC(=O)CC2(NC(=O)c3cc(-c4ccc(F)cc4F)on3)CN([C@H]3CC[C@](C)(O)CC3)C2)n1` [Example 1.008], less than 5 nM. In the case of `COc1cccnc1C(C)(C)NC(=O)CC1(NC(=O)c2nnc(-c3ccc(F)cc3F)s2)CN([C@H]2CC[C@](C)(O)CC2)C1` [Example 1.009], the IC50 was 5 to 100 nM. With `CCC(C)CN1CC(CC(=O)NC(C)(C)c2ccccn2)(NC(=O)c2cc(-c3ccc(F)cc3F)on2)C1` (stereo not shown) [Example 1.010] the figure was less than 5 nM; with `Cc1ccc(C)c(C(C)(C)NC(=O)CC2(NC(=O)c3nnc(-c4ccc(F)cc4F)s3)CN([C@H]3CC[C@](C)(O)CC3)C2)n1` [Example 1.011], less than 5 nM; with `Cc1cccnc1C(C)(C)NC(=O)CC1(NC(=O)c2nnc(-c3ccc(F)cc3F)s2)CN([C@H]2CC[C@](C)(O)CC2)C1` [Example 1.012], 100 to 1000 nM. With `CC1(C)CC(N2CC(CC(=O)NC(C)(C)c3ccccn3)(NC(=O)c3cc(-c4ccc(F)cc4F)on3)C2)CCO1` (stereo not shown) [Example 1.013] the figure was 5 to 100 nM. With `CC(C)(NC(=O)CC1(NC(=O)c2cc(-c3ccc(F)cc3F)on2)CN(C2CC3CC3C2)C1)c1ccccn1` (stereo not shown) [Example 1.014] the figure was 5 to 100 nM; with `CC(C)(NC(=O)CC1(NC(=O)c2cc(-c3ccc(F)cc3F)on2)CN(C2CC3(CC3)C2)C1)c1ccccn1` [Example 1.015], 5 to 100 nM; with `CC(C)CN1CC(CC(=O)NC(C)(C)c2cncc(Cl)c2)(NC(=O)c2cc(-c3ccc(F)cc3F)on2)C1` [Example 1.016], 5 to 100 nM. Consider `COc1ccc(F)cc1C(C)(C)NC(=O)CC1(NC(=O)c2nnc(-c3ccc(F)cc3F)s2)CN([C@H]2CC[C@](C)(O)CC2)C1` [Example 1.017], for which the IC50 was 5 to 100 nM.

Turning to `CC(CN1CC(CC(=O)NC(C)(C)c2ccccn2)(NC(=O)c2cc(-c3ccc(F)cc3F)on2)C1)C(F)(F)F` (stereo not shown) [Example 1.018], the IC50 lay within 100 to 1000 nM. With `CC(C)(NC(=O)CC1(NC(=O)c2cc(-c3ccc(F)cc3F)on2)CN(CCC(F)(F)F)C1)c1ccccn1` [Example 1.019] the figure was 100 to 1000 nM; with `CC(C)(NC(=O)CC1(NC(=O)c2cc(-c3ccc(F)cc3F)on2)CN(CC2CCC2)C1)c1ccccn1` [Example 1.020], 5 to 100 nM; with `CC(C)(NC(=O)CC1(NC(=O)c2cc(-c3ccc(F)cc3F)on2)CN([C@H]2CC[C@](C)(O)CC2)C1)c1ncccc1F` [Example 1.021], 5 to 100 nM.

In the case of `CC(C)(NC(=O)CC1(NC(=O)c2nnc(-c3ccc(F)cc3F)s2)CN([C@H]2CC[C@](C)(O)CC2)C1)c1ncccc1F` [Example 1.022], the IC50 lay within 5 to 100 nM. On to `CC(C)(NC(=O)CC1(NC(=O)c2cn(-c3ccc(F)cc3F)cn2)CN(C2CCCCC2)C1)c1cccc(Cl)c1` [Example 1.023], for which the IC50 lay in the range of 1000 to 20000 nM.

By IC50 is commonly meant the point on the concentration scale where inhibition reaches its midpoint.
